Measured values from patent US4496555A, “Compounds and compositions for inhibiting estrogen sulfotransferase transferase activity, process and novel intermediates therein” (Wayne State University, priority 1983, dated 1985).

Legend:
[1] = molecular target: T1, Porcine Uterine Estrogen Sulfotansferase (Sus scrofa, UniProt A0A286ZW98); assay: Inhibition of porcine uterine estrogen sulfotransferase (estrogen sulfates formed); format: biochemical; conditions: control 1.26 p mole
T1 sequence (A0A286ZW98 1-296): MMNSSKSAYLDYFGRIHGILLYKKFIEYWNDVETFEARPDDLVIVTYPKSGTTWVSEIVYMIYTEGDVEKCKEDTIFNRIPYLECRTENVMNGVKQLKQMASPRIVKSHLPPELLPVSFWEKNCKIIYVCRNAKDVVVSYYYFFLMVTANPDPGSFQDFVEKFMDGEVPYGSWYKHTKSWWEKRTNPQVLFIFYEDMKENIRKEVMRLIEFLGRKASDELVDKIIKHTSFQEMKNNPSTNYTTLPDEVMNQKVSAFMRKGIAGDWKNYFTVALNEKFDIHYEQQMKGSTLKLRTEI
Description: (§1) The estrogen sulfotransferase inhibiting activity of compounds within the scope of the invention are determined by inhibition of bovine adrenal or porcine uterine estrogen sulfotransferase. The desired concentration of estrogen sulfates is determined by comparisons after appropriate incubations with and without inhibitors and at various concentrations of inhibitors in the incubation. A detailed description of materials and methods for both bovine adrenal sulfotransferase inhibition and metabolism of estrogen in porcine uterus during implantation is described in U.S. Pat. No. 4,340,602 incorporated herein by reference above. Additionally, U.S. Pat. No. 4,340,602 describes materials and methods for determining estrogen sulfurylation in human endometrial curettings.

[2] = molecular target: T2, Bovine Adrenal Estrogen Sulfotransferase (Bos taurus, UniProt P19217); assay: Purified bovine adrenal estrogen sulfotransferase inhibition; format: biochemical; conditions: purified bovine adrenal enzyme; inhibitor concentration not given
T2 construct: from tissue; host or cells: bovine adrenal
T2 sequence (P19217 1-295): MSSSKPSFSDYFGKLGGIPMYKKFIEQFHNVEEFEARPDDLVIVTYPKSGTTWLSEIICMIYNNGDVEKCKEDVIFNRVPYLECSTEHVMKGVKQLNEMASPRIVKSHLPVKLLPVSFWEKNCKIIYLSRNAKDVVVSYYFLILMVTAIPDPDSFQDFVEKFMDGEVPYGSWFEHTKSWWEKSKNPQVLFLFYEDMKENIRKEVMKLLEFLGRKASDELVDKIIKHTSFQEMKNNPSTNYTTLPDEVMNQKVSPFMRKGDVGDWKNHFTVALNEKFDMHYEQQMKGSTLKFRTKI
Description: as §1
*Methods described in: Rozhin, J., et al. J. Biol. Chem. 252, 7214 (1977)

estrogen sulfurylation = conditions: Rozhin et al, J. Biol Chem., 1977, 252, 7214; cited from earlier work
[3] = system: receptor binding and nuclear migration of physiological levels of 17β-estradiol; conditions: Rozhin et al 1977; cited from earlier work

Compound | Estrogen Sulfates ([1]; 10-fold inhibitor) | Estrogen Sulfates ([1]; 10^2-fold inhibitor) | Estrogen Sulfates ([1]; 10^3 fold inhibitor) | % Inhibition [2] | estrogen sulfurylation (estrogen sulfurylation) | interference with receptor binding and nuclear migration of 17β-estradiol [3]
C[C@]12CC[C@@H]3c4cccc(F)c4CC[C@H]3[C@@H]1CC[C@@H]2O [4-F-1,3,5(10)estratriene 17β-ol, 4-Fluoroestra-1,3,5-(10)-trien-17β-ol] | 1.07 p mole | 1.08 p mole | 0.67 p mole | 81% | – | –
COc1ccc2c(c1[N+](=O)[O-])CC[C@@H]1[C@@H]2CC[C@]2(C)C(=O)CC[C@@H]12 [4-nitroestrone 3-0-methylether] | – | – | – | – | blocks estrogen sulfurylation | without interfering with the receptor binding and nuclear migration
